Data on 3 compounds can be found in article PMC4772377, “Structural insights into Cydia pomonella pheromone binding protein 2 mediated prediction of potentially active semiochemicals” (Scientific Reports, 2016).

Each structure is given as a SMILES string.

One may read the Kd as the constant that tells how readily two partners part at equilibrium.

This assay deals with CpomPBP2 (Cydia pomonella, UniProt I3ZNT9). Kind of assay: Competitive fluorescence binding assay with 1-NPN probe. Conditions: 2 μM CpomPBP2 and 2 μM 1-NPN, 50 mM Tris-HCl pH 6.8 (text: pH7.0); calculated from IC50; read-out: KD (dissociation constant of competitor).
Chain of CpomPBP2 (I3ZNT9 26-169 limits assumed): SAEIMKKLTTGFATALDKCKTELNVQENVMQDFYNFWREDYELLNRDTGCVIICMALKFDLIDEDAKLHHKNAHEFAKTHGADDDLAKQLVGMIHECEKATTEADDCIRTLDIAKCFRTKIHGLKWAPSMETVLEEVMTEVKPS
`CCCCCCC/C=C/C=C/C=O` [E,E-2,4-Dodecadienal]: the Kd was 6.99 ± 0.72 µM. With `CCCCCCOC(=O)CCCCC` [Hexyl Hexanoate] the figure was 16.2 ± 0.84 µM; with `CCC=CCCOC(=O)C(C)CC` (stereo not drawn) [Z-3-Hexenyl-2-Methylbutanoate], 97 ± 2.26 µM.
